Measured values: patent US7605163B2, “Benzoyl-piperazine derivatives” (Hoffmann-La Roche Inc., priority 2003, dated 2009)

target: T1, mGlyT-1b (Mus musculus, UniProt P28571); test: Glycine Uptake Inhibition Assay (mGlyT-1b); assay type: cell-based; conditions: [3H]-glycine uptake inhibition at GlyT-1, Flp-in-CHO cells transfected with mGlyT-1b cDNA
T1 construct: host or cells: Flp-in-CHO cells
T1 sequence (P28571 1-651 isoform P28571-2): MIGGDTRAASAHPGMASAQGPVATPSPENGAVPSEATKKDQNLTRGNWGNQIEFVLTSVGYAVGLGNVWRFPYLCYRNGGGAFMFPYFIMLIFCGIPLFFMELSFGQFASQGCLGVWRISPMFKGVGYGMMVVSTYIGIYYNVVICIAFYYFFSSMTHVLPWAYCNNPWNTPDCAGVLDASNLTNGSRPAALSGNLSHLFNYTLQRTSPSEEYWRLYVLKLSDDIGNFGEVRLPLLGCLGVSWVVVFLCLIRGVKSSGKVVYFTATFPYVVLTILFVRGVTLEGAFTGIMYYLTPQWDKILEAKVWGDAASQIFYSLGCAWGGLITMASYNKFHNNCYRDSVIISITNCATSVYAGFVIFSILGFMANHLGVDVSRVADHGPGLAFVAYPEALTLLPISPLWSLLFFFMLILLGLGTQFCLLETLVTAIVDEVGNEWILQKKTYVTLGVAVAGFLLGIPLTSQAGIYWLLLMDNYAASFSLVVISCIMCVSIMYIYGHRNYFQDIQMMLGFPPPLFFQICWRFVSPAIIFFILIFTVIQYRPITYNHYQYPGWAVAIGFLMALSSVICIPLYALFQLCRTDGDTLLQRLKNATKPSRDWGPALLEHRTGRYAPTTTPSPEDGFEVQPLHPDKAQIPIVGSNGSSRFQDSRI
Method: DMEM complete medium: Nutrient mixture F-12 (Gibco Life-technologies), fetal bovine serum (FBS) 5%, (Gibco life technologies), Penicillin/Streptomycin 1% (Gibco life technologies), Hygromycin 0.6 mg/ml (Gibco life technologies), Glutamine 1 mM Gibco life technologies)
Uptake buffer (UB): 150 mM NaCl, 10 mM Hepes-Tris, pH 7.4, 1 mM CaCl2, 2.5 mM KCl, 2.5 mM MgSO4, 10 mM (+) D-glucose. Flp-in™-CHO (Invitrogen Cat n^o R758-07) cells stably transfected with mGlyT1b cDNA.
Glycine Uptake Inhibition Assay (mGlyT-1b)
On day 1 mammalian cells, (Flp-in™-CHO), transfected with mGlyT-1b cDNA, were plated at the density of 40,000 cells/well in complete F-12 medium, without hygromycin in 96-well culture plates. On day 2, the medium was aspirated, and the cells were washed twice with uptake buffer (UB). The cells were then incubated for 20 min at 22° C. with either (i) no potential competitor, (ii) 10 mM non-radioactive glycine, (iii) a concentration of a potential inhibitor. A range of concentrations of the potential inhibitor was used to generate data for calculating the concentration of inhibitor resulting in 50% of the effect (e.g. IC50, the concentration of the competitor inhibiting glycine uptake of 50%).
A solution was then immediately added containing [^3H]-glycine 60 nM (11-16 Ci/mmol) and 25 μM non-radioactive glycine. The plates were incubated with gentle shaking, and the reaction was stopped by aspiration of the mixture and washing (three times) with ice-cold UB. The cells were lysed with scintillation liquid, shaken 3 hours and the radioactivity in the cells counted using a scintillation counter.

IC50	Compound
8 nM	CC(C)(C)COc1ccc([N+](=O)[O-])cc1C(=O)N1CCN(c2ccc(C(F)(F)F)cc2)CC1 [Example 68, [2-(2,2-Dimethyl-propoxy)-5-nitro-phenyl]-[4-(4-trifluoromethyl-phenyl)-piperazin-1-yl]-methanone]
8 nM	O=C(c1cc([N+](=O)[O-])ccc1OC1CCCC1)N1CCN(c2ccc(C(F)(F)F)cc2)CC1 [Example 71, (2-Cyclopentyloxy-5-nitro-phenyl)-[4-(4-trifluoromethyl-phenyl)-piperazin-1-yl]-methanone]
26 nM	CCCOc1ccc([N+](=O)[O-])cc1C(=O)N1CCN(c2ccc(C(F)(F)F)cc2)CC1 [Example 72, (5-Nitro-2-propoxy-phenyl)-[4-(4-trifluoromethyl-phenyl)-piperazin-1-yl]-methanone]
29 nM	O=C(c1cc([N+](=O)[O-])ccc1OCC(F)(F)C(F)F)N1CCN(c2ccc(C(F)(F)F)cc2)CC1 [Example 80, [5-Nitro-2-(2,2,3,3-tetrafluoro-propoxy)-phenyl]-[4-(4-trifluoromethyl-phenyl)-piperazin-1-yl]-methanone]
40 nM	O=C(c1cc([N+](=O)[O-])ccc1OCC(F)(F)F)N1CCN(c2ccc(C(F)(F)F)cc2)CC1 [Example 84, [5-Nitro-2-(2,2,2-trifluoro-ethoxy)-phenyl]-[4-(4-trifluoromethyl-phenyl)-piperazin-1-yl]-methanone]
7 nM	O=C(c1cc([N+](=O)[O-])ccc1OC1CC2CCC1C2)N1CCN(c2ccc(C(F)(F)F)cc2)CC1 (stereo not shown) [Example 88, [2-(Bicyclo[2.2.1]hept-2-yloxy)-5-nitro-phenyl]-[4-(4-trifluoromethyl-phenyl)-piperazin-1-yl]-methanone]
50 nM	O=C(c1cc([N+](=O)[O-])ccc1OCCCl)N1CCN(c2ccc(C(F)(F)F)cc2)CC1 [Example 92, [2-(2-Chloro-ethoxy)-5-nitro-phenyl]-[4-(4-trifluoromethyl-phenyl)-piperazin-1-yl]-methanone]
35 nM	O=C(c1cc([N+](=O)[O-])ccc1OC1CCOCC1)N1CCN(c2ccc(C(F)(F)F)cc2)CC1 [Example 95, [5-Nitro-2-(tetrahydro-pyran-4-yloxy)-phenyl]-[4-(4-trifluoromethyl-phenyl)-piperazin-1-yl]-methanone]
20 nM	O=C(c1cc([N+](=O)[O-])ccc1OCC(F)(F)C(F)(F)F)N1CCN(c2ccc(C(F)(F)F)cc2)CC1 [Example 100, [5-Nitro-2-(2,2,3,3,3-pentafluoro-propoxy)-phenyl]-[4-(4-trifluoromethyl-phenyl)-piperazin-1-yl]-methanone]
39 nM	CC(C)(Oc1ccc(S(C)(=O)=O)cc1C(=O)N1CCN(c2ccc(C(F)(F)F)cn2)CC1)C(F)(F)F [Example 105, [5-Methanesulfonyl-2-(2,2,2-trifluoro-1,1-dimethyl-ethoxy)-phenyl]-[4-(5-trifluoromethyl-pyridin-2-yl)-piperazin-1-yl]-methanone]
32 nM	CC(C)Oc1ccc(S(C)(=O)=O)cc1C(=O)N1CCN(c2ccc(S(=O)(=O)C(F)(F)F)cc2)CC1 [Example 328, (2-Isopropoxy-5-methanesulfonyl-phenyl)-[4-(4-trifluoromethanesulfonyl-phenyl)-piperazin-1-yl]-methanone]
16 nM	CS(=O)(=O)c1ccc(OC2CCCC2)c(C(=O)N2CCN(c3ccc(S(=O)(=O)C(F)(F)F)cc3)CC2)c1 [Example 329, (2-Cyclopentyloxy-5-methanesulfonyl-phenyl)-[4-(4-trifluoromethanesulfonyl-phenyl)-piperazin-1-yl]-methanone]
21 nM	CC(C)Oc1ccc(S(C)(=O)=O)cc1C(=O)N1CCN(c2ccc(C#N)c(F)c2F)CC1 [compound 109]
35 nM	CNS(=O)(=O)c1ccc(OC(F)(F)F)c(C(=O)N2CCN(c3ccc(C#N)c(F)c3)CC2)c1 [compound 111]
24 nM	CS(=O)(=O)c1ccc(OCCC(F)(F)F)c(C(=O)N2CCN(c3ccc(C#N)cc3F)CC2)c1 [compound 112]
19 nM	CS(=O)(=O)c1ccc(OCCC(F)(F)F)c(C(=O)N2CCN(c3ccc(C(F)(F)F)c(F)c3)CC2)c1 [compound 116]
44 nM	CS(=O)(=O)c1ccc(OCCC(F)(F)F)c(C(=O)N2CCN(c3ccc(C(F)(F)F)cc3F)CC2)c1 [compound 117]
24 nM	CC(=O)c1ccc(N2CCN(C(=O)c3cc(S(C)(=O)=O)ccc3OCCC(F)(F)F)CC2)c(F)c1 [compound 118]

IC50	Compound
20 nM	CC(C)COc1ccc(S(C)(=O)=O)cc1C(=O)N1CCN(c2ccc(C#N)c(F)c2F)CC1 [compound 128]
30 nM	CS(=O)(=O)c1ccc(OC2CCCC2)c(C(=O)N2CCN(c3ccc(C#N)c(F)c3F)CC2)c1 [compound 131]
38 nM	CC(C)COc1ccc(S(C)(=O)=O)cc1C(=O)N1CCN(c2cc(F)c(C#N)cc2F)CC1 [compound 132]
41 nM	CS(=O)(=O)c1ccc(OC2CCCC2)c(C(=O)N2CCN(c3cc(F)c(C#N)cc3F)CC2)c1 [compound 135]
27 nM	CS(=O)(=O)c1ccc(OCC2CCC2)c(C(=O)N2CCN(c3ccc(C#N)cc3)CC2)c1 [compound 136]
27 nM	CS(=O)(=O)c1ccc(OCC2CCC2)c(C(=O)N2CCN(c3ccc(C#N)c(F)c3)CC2)c1 [compound 137]
17 nM	CS(=O)(=O)c1ccc(OCC2CCC2)c(C(=O)N2CCN(c3ccc(C#N)cc3F)CC2)c1 [compound 138]
24 nM	CS(=O)(=O)c1ccc(OCC2CCC2)c(C(=O)N2CCN(c3ccc(C(F)(F)F)cc3)CC2)c1 [compound 139]
34 nM	CC(=O)c1ccc(N2CCN(C(=O)c3cc(S(C)(=O)=O)ccc3OCC3CCC3)CC2)c(F)c1 [compound 142]
45 nM	CS(=O)(=O)c1ccc(OCC2CCC2)c(C(=O)N2CCN(c3ccc(C(F)(F)F)cc3C#N)CC2)c1 [compound 144]
15 nM	CS(=O)(=O)c1ccc(OCC2CCC2)c(C(=O)N2CCN(c3ccc(C#N)c(F)c3F)CC2)c1 [compound 145]
19 nM	CS(=O)(=O)c1ccc(OCC2CCC2)c(C(=O)N2CCN(c3cc(F)c(C#N)cc3F)CC2)c1 [compound 146]
31 nM	CS(=O)(=O)c1ccc(OCC2CCC2)c(C(=O)N2CCN(c3c(F)cc(C#N)cc3F)CC2)c1 [compound 147]
36 nM	CS(=O)(=O)c1ccc(OCC2CCC2)c(C(=O)N2CCN(c3cc(F)c(C#N)c(F)c3)CC2)c1 [compound 148]
19 nM	CC(C)COc1ccc(S(C)(=O)=O)cc1C(=O)N1CCN(c2c(F)cc(C#N)cc2F)CC1 [compound 164]
470 nM	CS(=O)(=O)c1ccc(OCC2CC2)c(C(=O)N2CCN(c3c(F)cc(C#N)cc3F)CC2)c1 [compound 165]
16 nM	CS(=O)(=O)c1ccc(OC2CCCC2)c(C(=O)N2CCN(c3c(F)cc(C#N)cc3F)CC2)c1 [compound 167]
12 nM	CC(C)COc1ccc(S(C)(=O)=O)cc1C(=O)N1CCN(c2cc(F)c(C#N)c(F)c2)CC1 [compound 169]

Compound	IC50
CCCCOc1ccc([N+](=O)[O-])cc1C(=O)N1CCN(c2ccc(C(F)(F)F)cc2)CC1 [Example 66, (2-Butoxy-5-nitro-phenyl)-[4-(4-trifluoromethyl-phenyl)-piperazin-1-yl]-methanone]	32 nM
CC(C)COc1ccc([N+](=O)[O-])cc1C(=O)N1CCN(c2ccc(C(F)(F)F)cc2)CC1 [Example 70, (2-Isobutoxy-5-nitro-phenyl)-[4-(4-trifluoromethyl-phenyl)-piperazin-1-yl]-methanone]	8 nM
O=C(c1cc([N+](=O)[O-])ccc1OC1CCC1)N1CCN(c2ccc(C(F)(F)F)cc2)CC1 [Example 74, (2-Cyclobutoxy-5-nitro-phenyl)-[4-(4-trifluoromethyl-phenyl)-piperazin-1-yl]-methanone]	16 nM
CC(C)COc1ccc(S(C)(=O)=O)cc1C(=O)N1CCN(c2ccc(S(=O)(=O)C(F)(F)F)cc2)CC1 [Example 330, (2-Isobutoxy-5-methanesulfonyl-phenyl)-[4-(4-trifluoromethanesulfonyl-phenyl)-piperazin-1-yl]-methanone]	18 nM
